# Target: WT PA channel (Bacillus anthracis, UniProt P13423)
# Type: biochemical
# Chain of WT PA channel (P13423 197-764 limits assumed): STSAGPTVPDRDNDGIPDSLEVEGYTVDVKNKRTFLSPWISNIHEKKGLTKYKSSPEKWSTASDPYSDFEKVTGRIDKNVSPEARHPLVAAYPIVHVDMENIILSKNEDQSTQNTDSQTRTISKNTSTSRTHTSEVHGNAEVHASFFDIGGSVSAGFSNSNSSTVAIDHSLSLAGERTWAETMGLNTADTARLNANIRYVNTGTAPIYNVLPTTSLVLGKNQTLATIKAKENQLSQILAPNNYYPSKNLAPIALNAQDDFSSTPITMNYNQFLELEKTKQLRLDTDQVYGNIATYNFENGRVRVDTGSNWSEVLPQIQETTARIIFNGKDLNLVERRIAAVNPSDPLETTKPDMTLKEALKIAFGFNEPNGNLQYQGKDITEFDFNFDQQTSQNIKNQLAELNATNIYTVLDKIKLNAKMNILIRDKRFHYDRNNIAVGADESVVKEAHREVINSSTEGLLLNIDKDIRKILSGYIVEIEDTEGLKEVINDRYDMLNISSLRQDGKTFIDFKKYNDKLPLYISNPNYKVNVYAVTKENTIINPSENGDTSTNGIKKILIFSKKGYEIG
Substance,dissociation to the cis side slower than L-Trp (pH 5.6),relative rate of dissociation to the cis side (in words) (pH 5.6),translocation slower than L-Trp (pH 5.6),duration of the I2/B oscillation among guest–host peptides,oscillation between conductance states during translocation,translocation (in words) (pH 5.6),"translocation faster than D,L-Trp and D-Trp peptides (pH 5.6) [fold]",translocation faster than the HBS stapled peptide (pH 5.6)
D-Trp,~ 20 fold,dissociated the slowest,~ 10 fold,–,–,–,–,–
L-Trp,–,dissociated the fastest,–,longest durations,exhibited an oscillation between the I2 and B,translocated the fastest,10,~ 100 fold

# — paper PMC5562545 (Journal of molecular biology, 2017)
